Test results as given in US6693217B2, “Antimalarial N,N′-substituted biguanides derived from hydroxylamines” (Jacobus Pharmaceutical Co., Inc., priority 2001, dated 2004).
Where “and” joins values, the source holds several entries; their conditions need not be identical. Identical values can stand only once. Counter-ions that a name gives are not always drawn. Marks after values point to notes of the source that are not given here.

Key:
[1] = Toxicity: testis weight/body weight after 106 days of drug treated feed; details: for Mean values for testes: Left, % body wt / Mean values for testes: Right, % body wt.: male CD-1 mice, 8-mice groups, drug treated feed 106 days (300 ppm first 79 days, 600 ppm days 80-106); for Mean values for testes: Left, % body wt: control 0.30; for Mean values for testes: Right, % body wt.: control 0.31; for Testis damage / observable pathology: organs examined for pathology after 106 days of drug treated feed; for Decrease in testis weight/body weight: after 106 days of drug treated feed
Source text: Male CD-1 mice were fed drug treated feed for 106 days. For the first 79 days the drug level was 300 ppm and then 600 ppm for days 80-106. The animals were then sacrificed and the organs were both weighed and examined for pathology.

[2] = test system: drug-resistant clones of P. falciparum; details: cited from earlier work; for In vitro activity relative to comparator: drug-resistant clones of P. falciparum
[3] = in vivo
[4] = test system: P. berghei; details: administered orally to mice infected with P. berghei; cited from earlier work
[5] = test system: Plasmodium berghei (KBG-173 strain); assay: In vivo antimalarial activity, modified Thompson Test (Table II); set-up: species or system Charles River CD-1 mice; details: bid on days 3, 4, 5; for Average days Survival: 31 day experiment; for 6 day Parasetemia: % of red blood cells infected
Experimental: In vivo^1 antimalarial activity was tested in male or female Charles River CD-1 mice that were 4-5 weeks old and weighed 20-25 g. They were housed in groups of 3 or 4 in standard plastic cages with wire tops, bed-o-cob® bedding, 12 hr/day of light, and maintained at 75° F. They were fed a standard Ralston Purina mouse chow and the cages and water bottles were changed twice a week. Test compounds were ground in a mortar and pestle and diluted with enough vehicle to give a volume of 10 mL/kg of mouse weight. The oral doses were prepared in 0.5% hydroxyethylcellulose-0.1% Tween-80. The amount of drug was calculated on the free base weight. The mice were infected intraperitoneally on day 0 with 5×10^4 erythrocytes parasitized with Plasmodium berghei (KBG-173 strain) from a donor mouse having a parasitemia between 5-10%. On days 3, 4, 5 the test compounds were administered bid, spaced 6 h apart, to mice. Smears were made from tail blood on day +6 and twice a week thereafter. The smears were stained with Geimsa and examined microscopically. Parasitemias are reported as the % of the red blood cells that are infected. On day 6 the (suppression of) parasitemias of treated animals may be compared to the parasitemias of infected non-treated controls, but these infected non-treated controls die on days 7-12. Activity was also measured by survival. Full activity is defined as all animals living at day 31. Partial activity is defined as days of increased survival versus the infected non-treated controls.
^1This in vivo model is a modification of the Thompson Test. For further description see Ager, A. L., Jr. Rodent Malaria Models. In Handbook of Experimental Pharmacology: Antimalarial Drugs. I. 68/1; Peters, W., Richards, W. H. G., Eds.: Springer-Verlag: Berlin, 1984, pp. 231-33.

[6] = test system: Plasmodium berghei; assay: Comparison of antimalarial activity of analogs of PS-15 in infected mice (Table III); format: in vivo; details: orally bid on days 3, 4, 5 in HEC Tween, infection control 08.0
Source text: Mice were infected with Plasmodium berghei on day 0 and the drugs were mixed in HEC Tween and given orally bid on days 3, 4, and 5 post infection. Blood films were taken on day 6 and twice weekly thereafter until day 30.

[7] = test system: multidrug-resistant P. falciparum; details: administered orally to Aotus monkeys; cited from earlier work
[8] = cited from earlier work

CC(C)NC(=N)NC(=N)NOCCCOc1ccc(F)c(F)c1 [3,4-Difluoro]
Mean values for testes: Left, % body wt [1]: 0.21 % body wt | Mean values for testes: Right, % body wt. [1]: 0.23 % body wt.

CC1(C)N=C(N)N=C(N)N1OCCCOc1cc(Cl)c(Cl)cc1Cl [WR99210]
In vitro activity relative to comparator [2]: ten thousand times more active than the proquanil metabolite cycloguanil

CC(C)NC(=N)NC(=N)NOCCCOc1cc(Cl)c(Cl)cc1Cl [PS-15, N-[3-(2,4,5-trichlorophenoxy)propyloxy]-N′-(1-methylethyl)imidodicarbonimidediamide hydrochloride, reference compound]
Testicular toxicity [3]: caused testicular toxicity | Activity relative to proguanil [4]: more active | Toxicity relative to proguanil [4]: less toxic than proguanil | Average days Survival ([5]; 16 mg/kg oral, hydrochloride): 14.1 days and 15.1 days and 14.6 days and 13.6 days | 6 day Parasetemia ([5]; 16 mg/kg oral, hydrochloride): 1.8% and 2.7% and 1.94% and 1.1% | Average days Survival ([5]; 32 mg/kg oral, hydrochloride): 15.9 days and 17.8 days and 12.8 days and 21.8 days | 6 day Parasetemia ([5]; 32 mg/kg oral, hydrochloride): 0% and 0.006% and 0.01% | Average days Survival ([5]; 64 mg/kg oral, hydrochloride): >24.7 days and >31* days | 6 day Parasetemia ([5]; 64 mg/kg oral): 0% | Activity against drug-resistant Plasmodium falciparum ([2]; as described by Canfield et al. 1993): significant activity | In vitro activity relative to comparator [2]: more active than proguanil | Cross-resistance with other inhibitors of DHFR ([2]; versus pyrimethamine and cycloguanil): not cross-resistant | Mean values for testes: Left, % body wt [1]: 0.21 % body wt | Mean values for testes: Right, % body wt. [1]: 0.22 % body wt. | Testis damage / observable pathology [1]: Testis damage was found | AVG. DAY OF DEATH ([6]; 16 MK/KG/DAY): 15.1 days | AVG. DAY OF DEATH ([6]; 32 MK/KG/DAY): 15.7 days | AVG. DAY OF DEATH ([6]; 64 MK/KG/DAY): 17.0 days | Activity relative to proguanil or WR99210 [7]: more active than either proquanil or WR99210 | Metabolism in vivo [8]: metabolized in vivo to WR99210

CC(C)NC(=N)NC(=N)NOCCCOc1ccc(Cl)c(Cl)c1 [PS-26, 1-[3-(3,4-dichlorophenoxy)propyloxy]-5-isopropylbiguanide(hemisuccinate)]
Average days Survival ([5]; 16 mg/kg oral): 15.7 days and 16.6 days and 16.0 days | 6 day Parasetemia ([5]; 16 mg/kg oral): 0% and 0.006% | Average days Survival ([5]; 32 mg/kg oral): >29.3 days and >31 days | 6 day Parasetemia ([5]; 32 mg/kg oral): 0% | Average days Survival ([5]; 64 mg/kg oral): >31* days | 6 day Parasetemia ([5]; 64 mg/kg oral): 0% | Decrease in testis weight/body weight [1]: no decrease in testis weight/body weight | Mean values for testes: Left, % body wt [1]: 0.29 % body wt | Mean values for testes: Right, % body wt. [1]: 0.32 % body wt. | Testis damage / observable pathology [1]: minimal to no observable pathology | AVG. DAY OF DEATH ([6]; 16 MK/KG/DAY): 16.6 days | AVG. DAY OF DEATH ([6]; 32 MK/KG/DAY): 15.5 days

CC(C)NC(=N)NC(=N)NOCCCOc1ccc(Cl)cc1 [PS-33, 1-[3-(4-chlorophenoxy)propyloxy]-5-isopropylbiguanide(hemisuccinate)]
Average days Survival ([5]; 16 mg/kg oral): 14.1 days and 15.1 days and 14.6 days and 13.6 days | 6 day Parasetemia ([5]; 16 mg/kg oral): 1.8% and 2.7% and 1.94% and 1.1% | Average days Survival ([5]; 32 mg/kg oral): 21.8 days and 15.9 days and 17.8 days and 12.8 days | 6 day Parasetemia ([5]; 32 mg/kg oral): 0.01% and 0% and 0.006% | Average days Survival ([5]; 64 mg/kg oral): >31* days and >24.7 days | 6 day Parasetemia ([5]; 64 mg/kg oral): 0% | Decrease in testis weight/body weight [1]: no decrease in testis weight/body weight | Mean values for testes: Left, % body wt [1]: 0.27 % body wt | Mean values for testes: Right, % body wt. [1]: 0.36 % body wt. | Testis damage / observable pathology [1]: minimal to no observable pathology | AVG. DAY OF DEATH ([6]; 16 MK/KG/DAY): 16.0 days | AVG. DAY OF DEATH ([6]; 32 MK/KG/DAY): 19.5 days | AVG. DAY OF DEATH ([6]; 64 MK/KG/DAY): 29.0 days

CC(C)NC(=N)NC(=N)NOCCCOc1ccc(Cl)cc1Cl [2,4-Dichloro]
Mean values for testes: Left, % body wt [1]: 0.19 % body wt | Mean values for testes: Right, % body wt. [1]: 0.20 % body wt.
